Reference: patent US11186564B2, “Dual NAV1.2/5HT2a inhibitors for treating CNS disorders” (Sunovion Pharmaceuticals Inc., priority 2016, dated 2021)

Tests used:
[1] = molecular target: T1, recombinant human serotonin receptor 5-HT2A (Homo sapiens, UniProt P28223); assay: 5-HT2A antagonist Ca2+ assay in CHO-K1 cells (method A aequorin luminescence / method B FLIPR fluorescence); assay type: cell-based; conditions: antagonist mode vs EC80 of reference agonist, method A or B, read-out: 5HT2A IC50
T1 construct: expressed in transfected cells; method B: loaded with Ca2+ dye
Procedure, shortened: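 IC50 was obtained by nonlinear regression of percent inhibition of the EC80 agonist Ca2+ response in CHO-K1 cells stably expressing human 5-HT2A. The readout was aequorin luminescence with agonist injected 15 min after compound (A), or Ca2+-dye fluorescence on FLIPR with serotonin as agonist (B).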

[2] = molecular target: human sodium channel NaV1.2 (Homo sapiens, UniProt Q99250); assay: NaV1.2 inhibition, automated patch-clamp (Q-Patch HTX), slow inactivated state (state C); assay type: cell-based; conditions: hNaV1.2 CHO cells, slow inactivated state; for IC50: read-out: NaV1.2 IC50; for inhibition at 10 µM: 10 μM compound, read-out: NaV1.2 (% inh), 10 μM; for inhibition at 1 µM: 1 μM compound, read-out: NaV1.2 (% inh), 1 μM
Excerpt: In vitro method for NaV1.2 inhibition assays: The methods utilized to assess the inhibitory activity of compounds on NaV1.2 were based on the methods described by Liu et al. [Liu Y, Beck E J, & Flores C M (2011): Validation of a patch clamp screening protocol that simultaneously measures compound activity in multiple states of the voltage-gated sodium channel Nav1.2. Assay Drug Development Technology 9, 628-634]. For these electrophysiology assays, a cell line (Chinese Hamster Ovarian K-1 cells (CHO K-1)) engineered to stably express human sodium channel NaV1.2 was purchased from Millipore Corporation (catalog no. CYL3023). The electrophysiology measurements were performed using automated patch-clamp methods on a Q-Patch HTX instrument by scientists at Evotec AG under contract with Sunovion.
The solutions utilized for the Qpatch experiments were similar buffered solutions to those described by Liu et al. [Liu Y, Beck E J, & Flores C M (2011)]. The extracellular solution contained 140 millimolar sodium chloride, 4 millimolar potassium chloride, 2 millimolar calcium chloride, 1 millimolar magnesium chloride, 10 millimolar 4-(2-hydroxyethyl)-1-piperazineethanesulfonic acid (HEPES), and 10 millimolar glucose (pH adjusted to 7.4 with sodium hydroxide). The intracellular solution contained 100 millimolar cesium fluoride, 45 millimolar cesium chloride, 10 millimolar HEPES, 5 millimolar ethylene glycol tetraacetic acid (EGTA), and 5 millimolar glucose (pH adjusted to 7.2 with cesium hydroxide).
The biophysical experiments of Lui et al. [Liu Y, Beck E J, & Flores C M (2011)] were replicated to assess the fast, slow and total inactivation characteristics of the human Nav1.2 channel
Based upon results from studies of the fast, slow and total inactivation characteristics of the human Nav1.2 channel, a voltage protocol involving a sequence of consecutive pulses of current was used to measure channel activity in several states [Liu Y, Beck E J, & Flores C M (2011)]. The monolayer of CHO K-1 cells stably expressing human sodium channel NaV1.2 (hNaV1.2 CHO cells) was maintained in the Qpatch instrument at a potential of −100 millivolts (mV) except when the voltage protocol was being executed. The first pulse in the protocol involved a 100 millisecond depolarization to 0 mV to enable measurement of channel availability in the closed state (state A). The potential was then maintained at −90 mV for 15 milliseconds, followed by a five millisecond period of depolarization to 0 mV to enable measurement of channel availability after partial recovery from fast inactivation (state B). Next, the potential was maintained at −90 mV for 300 milliseconds, followed by ten seconds at −50 mV, 15 milliseconds at −90 mV, and finally another five millisecond period of depolarization to 0 mV to enable measurement of channel availability after additional recovery from fast inactivation and significant entry into the slow inactivated state (state C). Finally, after an additional 300 millisecond period at −90 mV, another five millisecond period of depolarization to 0 mV was employed to enable measurement of channel availability after partial recovery from the slow inactivated state (state D). Measurements of activity at state C were used to assess the activity of the NaV1.2 channel in the slow inactivated state. Comparison of activity after addition of test compounds or reference compounds with activity after addition of vehicle only provided a measure of percent remaining activity from which percent inhibition was calculated. […] A slight modification of this protocol was utilized to provide measurements as a function of compound concentration, which enabled IC50 values to be determined. IC50 values were calculated by non-linear least squares regression of the data (percent inhibition of ion channel NaV1.2 activity in the slow inactivated state) onto equation (1): % inhibition=100%/(1+(IC50/[compound]) equation (1)
J Pharmacol Exp Ther. 2008 July; 326(1):89-99.].

T1 sequence (P28223 whole entry): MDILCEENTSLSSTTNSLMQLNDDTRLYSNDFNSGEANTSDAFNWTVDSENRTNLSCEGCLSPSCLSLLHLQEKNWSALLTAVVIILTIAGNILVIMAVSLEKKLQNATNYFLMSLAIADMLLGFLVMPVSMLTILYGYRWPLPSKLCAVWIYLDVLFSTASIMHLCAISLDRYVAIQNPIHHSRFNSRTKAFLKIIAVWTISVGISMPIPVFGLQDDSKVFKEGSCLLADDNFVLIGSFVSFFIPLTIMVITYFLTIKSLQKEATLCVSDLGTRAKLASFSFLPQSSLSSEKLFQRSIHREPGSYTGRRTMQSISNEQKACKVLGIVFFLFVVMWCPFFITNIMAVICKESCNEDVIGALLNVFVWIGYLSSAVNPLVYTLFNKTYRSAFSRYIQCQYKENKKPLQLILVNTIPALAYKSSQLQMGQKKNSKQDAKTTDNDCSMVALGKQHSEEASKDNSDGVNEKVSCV
Sequence of human sodium channel NaV1.2 (Q99250 whole entry): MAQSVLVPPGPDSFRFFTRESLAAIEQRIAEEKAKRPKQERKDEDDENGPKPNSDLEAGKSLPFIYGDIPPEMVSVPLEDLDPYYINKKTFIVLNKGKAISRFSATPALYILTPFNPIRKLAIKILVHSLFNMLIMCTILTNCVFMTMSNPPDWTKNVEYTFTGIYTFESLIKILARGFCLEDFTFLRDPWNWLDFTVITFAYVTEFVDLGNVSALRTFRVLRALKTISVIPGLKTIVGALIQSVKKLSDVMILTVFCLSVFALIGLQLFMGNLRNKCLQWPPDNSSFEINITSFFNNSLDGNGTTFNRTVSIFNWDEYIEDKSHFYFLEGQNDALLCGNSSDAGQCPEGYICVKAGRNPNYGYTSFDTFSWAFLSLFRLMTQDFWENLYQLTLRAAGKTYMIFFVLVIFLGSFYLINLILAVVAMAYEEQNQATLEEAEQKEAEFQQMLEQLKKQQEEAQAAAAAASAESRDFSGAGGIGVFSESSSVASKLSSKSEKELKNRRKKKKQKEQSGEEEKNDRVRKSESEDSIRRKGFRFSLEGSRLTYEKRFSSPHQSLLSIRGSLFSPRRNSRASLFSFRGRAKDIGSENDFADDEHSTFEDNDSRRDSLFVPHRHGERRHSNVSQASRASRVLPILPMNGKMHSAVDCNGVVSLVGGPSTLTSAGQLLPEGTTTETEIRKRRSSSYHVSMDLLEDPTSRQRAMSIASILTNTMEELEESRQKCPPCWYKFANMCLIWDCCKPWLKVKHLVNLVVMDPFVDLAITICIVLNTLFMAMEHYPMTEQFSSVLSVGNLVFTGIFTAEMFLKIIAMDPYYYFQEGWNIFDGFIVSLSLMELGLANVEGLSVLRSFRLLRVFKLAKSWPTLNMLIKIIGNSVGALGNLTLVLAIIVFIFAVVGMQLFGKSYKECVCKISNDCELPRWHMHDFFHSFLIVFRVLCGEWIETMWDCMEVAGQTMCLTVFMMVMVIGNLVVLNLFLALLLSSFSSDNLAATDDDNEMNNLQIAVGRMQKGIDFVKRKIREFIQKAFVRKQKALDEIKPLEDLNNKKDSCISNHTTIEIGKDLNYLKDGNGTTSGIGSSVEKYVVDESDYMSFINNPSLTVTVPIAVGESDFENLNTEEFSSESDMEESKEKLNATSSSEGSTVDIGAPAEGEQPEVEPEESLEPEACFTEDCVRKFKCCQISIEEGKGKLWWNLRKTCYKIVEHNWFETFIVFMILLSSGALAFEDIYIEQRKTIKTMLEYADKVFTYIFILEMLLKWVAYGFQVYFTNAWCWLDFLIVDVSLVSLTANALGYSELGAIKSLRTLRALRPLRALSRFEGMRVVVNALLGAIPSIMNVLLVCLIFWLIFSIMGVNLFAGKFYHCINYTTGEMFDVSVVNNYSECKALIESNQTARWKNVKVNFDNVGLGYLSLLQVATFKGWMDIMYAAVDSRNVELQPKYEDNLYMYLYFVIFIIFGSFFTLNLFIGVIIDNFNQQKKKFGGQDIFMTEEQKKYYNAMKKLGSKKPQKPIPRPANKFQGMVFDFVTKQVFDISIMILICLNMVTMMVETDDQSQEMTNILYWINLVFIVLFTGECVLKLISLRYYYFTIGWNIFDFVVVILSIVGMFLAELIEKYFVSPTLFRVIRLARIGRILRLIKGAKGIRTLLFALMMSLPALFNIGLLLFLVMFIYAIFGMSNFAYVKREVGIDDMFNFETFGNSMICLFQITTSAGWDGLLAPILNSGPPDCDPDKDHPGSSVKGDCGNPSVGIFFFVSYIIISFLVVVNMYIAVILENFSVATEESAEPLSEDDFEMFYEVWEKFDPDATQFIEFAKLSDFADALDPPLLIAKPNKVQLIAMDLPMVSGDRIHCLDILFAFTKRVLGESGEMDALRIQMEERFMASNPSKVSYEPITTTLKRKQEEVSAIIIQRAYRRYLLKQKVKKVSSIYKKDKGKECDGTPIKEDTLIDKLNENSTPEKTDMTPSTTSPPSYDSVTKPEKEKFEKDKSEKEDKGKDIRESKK

inhibition at 10 µM [2] [%]	inhibition at 1 µM [2] [%]	SMILES	IC50 [1] [nM]	IC50 [2] [nM]
–	–	OC(COc1ccccc1)CN1CCN(c2cccc(Cl)c2)CC1 (stereo not shown) [Example 89, 1-(4-(3-chlorophenyl)piperazin-1-yl)-3-phenoxypropan-2-ol]	70	440
–	–	c1ccc(O[C@H]2COC3(CCN(C[C@@H]4CCc5ccccc54)CC3)C2)cc1 (single isomer, unassigned) [Compound 382]	60	1210
77	–	OC1(CN2CCC(Oc3ccc(F)cc3)CC2)COCc2ccccc21 (stereo not shown) [Example 159, 4-((4-(4-fluorophenoxy)piperidin-1-yl)methyl)isochroman-4-ol]	20	–
–	16	O=C1c2ccccc2CCN1CCN1CCN(c2ccccc2)CC1 [Example 63, 2-(2-(4-phenylpiperazin-1-yl)ethyl)-3,4-dihydroisoquinolin-1(2H)-one]	450	–
–	32	O=C1c2ccc(F)cc2CN1CCN1CCC(Oc2ccc(F)cc2)CC1 [Example 188, 5-fluoro-2-(2-(4-(4-fluorophenoxy)piperidin-1-yl)ethyl)isoindolin-1-one]	50	–
–	22	Fc1ccc(O[C@H]2CCCN(CC3COCc4ccccc43)C2)cc1 (stereo partly drawn) [Example 261, (3S)-3-(4-fluorophenoxy)-1-(isochroman-4-ylmethyl)piperidine]	350	–
–	–	COc1ccccc1N1CCC2(CCN(CC3CCc4ccccc43)C2)C1 (stereo not shown) [Example 335, 2-((2,3-dihydro-1H-inden-1-yl)methyl)-7-(2-methoxyphenyl)-2,7-diazaspiro[4.4]nonane]	40	120
–	–	c1ccc(O[C@H]2COC3(CCN(C[C@H]4CCc5ccccc54)CC3)C2)cc1 (single isomer, unassigned) [Compound 381]	20	290
–	–	c1ccc(O[C@H]2COC3(C2)CN(C[C@H]2CCc4ccccc42)C3)cc1 (single isomer, unassigned) [Compound 365]	220	2180
–	–	Fc1ccc(OC2COC3(C2)CN(CC2Cc4cccnc4C2)C3)cc1 (stereo not shown) [Example 370, 2-((6,7-dihydro-5H-cyclopenta[b]pyridin-6-yl)methyl)-7-(4-fluorophenoxy)-5-oxa-2-azaspiro[3.4]octane]	100	2010
–	–	c1ccc2c(c1)COC1(CCN(CC3CCc4ccccc43)CC1)C2 (stereo not shown) [Example 443, l′-((2,3-dihydro-1H-inden-1-yl)methyl)spiro[isochromane-3,4′-piperidine]]	220	3370
72	–	c1ccc(OC2CCN(CCO[C@@H]3CCc4ccccc43)CC2)cc1 [Example 218, (R)-1-(2-((2,3-dihydro-1H-inden-1-yl)oxy)ethyl)-4-phenoxypiperidine]	440	–
–	–	COc1ccccc1OC1CCN(CC2c3ccccc3CC2(C)C)CC1 (stereo not shown) [Example 100]	710	2600
–	–	COc1ccc2c(c1)C(CN1CC[C@@H]3C[C@H]1CN3c1ccccc1)CC2 (stereo partly drawn) [Example 319, (1S,5R)-2-((6-methoxy-2,3-dihydro-1H-inden-1-yl)methyl)-6-phenyl-2,6-diazabicyclo[3.2.1]octane]	1210	40
–	–	O=C1c2ccccc2CCN1CCCN1CCC(Oc2ccc(F)cc2)CC1 [Example 222, 2-(3-(4-(4-fluorophenoxy)piperidin-1-yl)propyl)-3,4-dihydroisoquinolin-1(2H)-one]	60	1300
50	–	CN(C)Cc1ccc2c(c1)C(=O)N(CCN1CCC(Oc3ccc(F)cc3)CC1)CCC2 [Example 211, 8-((dimethylamino)methyl)-2-(2-(4-(4-fluorophenoxy)piperidin-1-yl)ethyl)-2,3,4,5-tetrahydro-1H-benzo[c]azepin-1-one]	270	–
–	–	Cc1cccc(N2CCN(CC(O)COC3COc4ccccc43)CC2)c1C (stereo not shown) [Example 80, 1-((2,3-dihydrobenzofuran-3-yl)oxy)-3-(4-(2,3-dimethylphenyl)piperazin-1-yl)propan-2-ol]	60	170
